Data taken from PubChem BioAssay AID493043 (Johns Hopkins Ion Channel Center, 2011).

Biological target: Potassium voltage-gated channel subfamily KQT member 4 (Homo sapiens) (UniProt P56696)
Assay: human KCNQ4 channel current potentiation, dose response, selectivity assay for KCNQ2 activator project, automated patch clamp, CHO cells (AID 493043)

Sequence of Potassium voltage-gated channel subfamily KQT member 4 (Homo sapiens) (P56696 whole entry, looked up): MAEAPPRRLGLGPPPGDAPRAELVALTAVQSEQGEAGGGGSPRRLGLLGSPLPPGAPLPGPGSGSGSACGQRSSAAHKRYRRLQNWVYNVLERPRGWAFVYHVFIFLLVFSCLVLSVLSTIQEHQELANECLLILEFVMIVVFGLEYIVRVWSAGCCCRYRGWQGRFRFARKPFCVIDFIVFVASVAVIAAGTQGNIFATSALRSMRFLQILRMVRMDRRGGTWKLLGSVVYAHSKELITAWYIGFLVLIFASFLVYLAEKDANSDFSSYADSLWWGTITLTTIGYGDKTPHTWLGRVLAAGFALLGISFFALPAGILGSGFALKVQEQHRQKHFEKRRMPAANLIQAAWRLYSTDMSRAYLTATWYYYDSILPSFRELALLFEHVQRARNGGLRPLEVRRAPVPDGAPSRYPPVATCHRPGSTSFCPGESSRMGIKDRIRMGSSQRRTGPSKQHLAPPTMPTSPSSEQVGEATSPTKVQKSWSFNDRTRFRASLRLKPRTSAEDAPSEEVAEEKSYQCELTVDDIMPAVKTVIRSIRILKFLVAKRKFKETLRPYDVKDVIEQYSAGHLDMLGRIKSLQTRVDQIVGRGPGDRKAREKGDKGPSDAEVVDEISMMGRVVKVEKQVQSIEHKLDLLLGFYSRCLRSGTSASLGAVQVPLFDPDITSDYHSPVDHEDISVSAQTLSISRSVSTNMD

EC50: 0.513 µM
Structure (SMILES): Cc1cc(C)c(NC(=O)C2CC3CCC2C3)c(C)c1 (stereo unspecified)
